For one data set, the system named is CHO cultures. The following applies: cited from earlier work.
For the next data set, the system named is CHO-DG44 cells. Description: Cell cycle analysis of perfusion bioreactor culture (Example 2). Format: cell-based, Chinese hamster. The following applies: 150 μM and 200 μM retinyl acetate, 1.6 mM ferric citrate, compared to control, data not shown. How it is done: Samples were taken near-daily for: VCD and viability (Vi-Cell, Beckman-Coulter), osmolality (Advanced Instrument Inc), pH, CO2, and O2 (RapidLab 1240 BGA, Siemens), and metabolite readings (Cedex BioHT, Roche). DeltaV was used to control and Finesse TruBio software was used to record and monitor cell bleed, permeate, and media pump rates. Cell samples were taken throughout the experiment and stored at −20° C. in 70% EtOH after treatment with Accumax (Innovative Cell Technologies) for later cell cycle analysis using propidium iodide stain with RNase (BD Biosciences) on a Guava easyCyte flow cytometer (EMD Millipore).

For data set [1], the system named is CHO DG44 cells expressing a recombinant monoclonal IgG1 antibody. In words: High density perfusion culture in bioreactors, 350 μM ferric citrate (Example 3). Format: cell-based, Chinese hamster. How it is done:
A high density perfusion culture of CHO DG44 cells expressing a recombinant monoclonal IgG1 antibody was treated with low iron (Fe) and vitamin A (retinyl acetate) to assess the effect on cell proliferation, and the cell bleed. A bench-scale experiment was performed essentially as described above for Example 2. During the growth phase (d0-d10 post-inoculation) there was no cell bleed, allowing the viable cell density (VCD) to reach desired level. On day 8, ferric citrate (Sigma-Aldrich; CAS 3522-50-7) was added to the perfusion media at a concentration of 350 μM. Once optimal cell density was reached on day 10, cell bleed was initiated to maintain constant VCD (steady state). The calculation governing the cell bleed rate was based on maintaining the Incyte biomass capacitance probe value (Hamilton company) which corresponded to the target VCD.
On day 25 day, retinyl acetate (Sigma-Aldrich, CAS 127-47-9) was introduced to one of the bioreactors, with one bioreactor acting as control with no retinyl acetate. Retinyl acetate was dissolved in absolute ethanol and sterile-filtered with a 0.2 μm filter to make a sterile stock solution of 152 mM before addition to media bags for final concentrations of 100 μM retinyl acetate. Retinyl acetate was then added to the bioreactor on day 25. The bag of new treatment media was attached to the media inlet line of the bioreactors and in order to ensure an instantaneous achievement of target retinyl acetate concentration within the vessels (as opposed to the gradual increase which would occur via introduction through the perfusion medium), a bolus addition of 1.3 mL retinyl acetate stock solution was added directly to the treatment bioreactor via injection through a sterile addition line. Samples were taken and analyzed as explained for Example 2.

Data set [2] concerns CHO-DG44 cells expressing a recombinant monoclonal IgG1 antibody. In words: High density perfusion culture in 2 L bioreactors, 1.6 mM ferric citrate (Example 2). The data set is classed as cell-based, Chinese hamster. The note with it: for decrease of cell bleed rate: 1.6 mM ferric citrate background media, over 4 days (FIG. 5B). On the procedure:
A high density perfusion culture of CHO-DG44 cells expressing a recombinant monoclonal IgG1 antibody was treated with high iron (Fe) and vitamin A (retinyl acetate) to assess the effect on cell proliferation, and by extension, the cell bleed. A bench-scale experiment was performed in three 2 L perfusion bioreactors with 0.2 μm PES hollow fibers (Spectrum Labs) on alternating tangential flow (ATF) at 0.8 L/min flow rate. Bioreactors were maintained at: 37° C., 60% dissolved oxygen, 348 RPM agitation, and a target pH of 7.0 (pH target was not always achieved). A CHO DG44 cell line expressing a monoclonal antibody was inoculated into the bioreactors at approximately 1e6 cells/mL in proprietary chemically defined, serum-free inoculation medium at a 1:4 dilution of conditioned to fresh inoculation media. This culture was grown in batch mode (no flow in or out) for 2 days, at which time perfusion was started with BI's perfusion media (manufactured by SAFC). […] During the growth phase (d0-d10 post-inoculation) there was no cell bleed, allowing the viable cell density (VCD) to reach desired level. On day 8, ferric citrate (Sigma-Aldrich; CAS 3522-50-7) was added to the perfusion medium at a concentration of 1.6 mM, targeting a pH of 6.9. Once optimal cell density was reached on day 10, cell bleed was initiated to maintain constant VCD (steady state). The calculation governing the cell bleed rate was based on maintaining the Incyte biomass capacitance probe value (Hamilton) which corresponded to the target VCD.
After steady state was established for several days, retinyl acetate (Sigma-Aldrich, CAS 127-47-9) was introduced to two of the bioreactors, with one bioreactor acting as control with no retinyl acetate (Table 4). Retinyl acetate was dissolved in absolute ethanol and sterile-filtered with a 0.2 μm filter to make a sterile stock solution of 152 mM before addition to media bags for final concentrations of 50 μM, 100 μM, 150 μM, or 200 μM retinyl acetate (in four respective bags). Each treatment bioreactor then received retinyl acetate at a first concentration between day 15 and 20 (50 μM or 100 μM) and at a second concentration between days 20-24 (150 or 200 μM) as shown in Table 4. On day 15 and 20 for each treatment, the bag of new treatment media was attached to the media inlet line of the bioreactors. […]
Samples were taken near-daily for: VCD and viability (Vi-Cell, Beckman-Coulter), osmolality (Advanced Instrument Inc), pH, CO2, and O2 (RapidLab 1240 BGA, Siemens), and metabolite readings (Cedex BioHT, Roche). […]

Data set [3] deals with Chinese hamster ovary (CHO) DG44 cells. Description: Cell cycle analysis of deep well culture (propidium iodide, flow cytometry). The data set is classed as cell-based. The following applies: 400 μM retinyl acetate, 3.1 mM ferric citrate, cultivation for 7 days; control cells 62.6%. How it is done: Cell cycle analysis was performed on days 1 and 7 of deep well culture. Cells were grown in medium containing 3.1 mM ferric citrate and 400 μM retinyl acetate or control medium and fixed on days 1 and 7 by a wash in cold PBS before suspension in 70% ethanol. Cells were stored at −20° C. until analysis. 1e5 cells per sample were stained with propidium iodide with RNase (BD Biosciences) for DNA content and analyzed by flow cytometry on a Guava easyCyte flow cytometer (EMD Millipore).

In data set [4] the test system is Chinese hamster ovary (CHO) DG44 cells expressing a recombinant monoclonal IgG1 antibody. Description: Deep well plate model of perfusion (small scale culture): viable cell density, viability, titer. Format: cell-based. How it is done:
Axygen 24 well pre-sterilized deep-well plates (Neta Scientific Inc, Hainesport, NJ) were used as a scale-down model of perfusion. A starting cell density of 20×10^6 cells/mL (3 mL per well) was targeted to simulate the high cell density growth phase of perfusion. Chinese hamster ovary (CHO) DG44 cells expressing a recombinant monoclonal IgG1 antibody were grown in proprietary chemically defined, serum-free perfusion media at 33° C. with 5% CO2, 80% humidity, and 200 rpm shaking speed in an incubator with a 5.0 cm orbit diameter for 4 or 8 days. A 0.1 mL sample was taken for cell count daily prior to media exchange. Medium exchanges were performed daily by centrifuging the plate at 1200 rpm for 5 minutes, removing 2 mL supernatant, and resuspending cells in 2.1 mL fresh, pre-warmed media at 37° C. (in early days, this equates to a ⅔ volume exchange, whereas in later days the cell pellet grows such that 2 mL is nearly the entire liquid volume, equating to a 1 VVD exchange). Supernatant was saved to perform process analytics.
Retinyl acetate was tested in concentrations ranging from 5 μM to 600 μM in proprietary chemically defined, serum-free perfusion medium with 230 μM or 3.1 mM ferric citrate. A 152 mM stock solution of retinyl acetate was prepared by dissolving 50 mg/mL retinyl acetate powder to prepare a 152 mM stock (Sigma-Aldrich; CAS 127-47-9) in absolute ethanol, or 75 mg/mL retinyl acetate for 228 mM stock, for each experimental run; after thorough mixing, the solutions were sterile-filtered with 0.22 μm Steriflips (EMD Millipore). This stock was diluted down further with perfusion medium to provide a working stock. Media aliquot concentrations were 30% higher than the targeted final concentration in each treatment to compensate for residual media left in the well and cell pellet volume. The media were prepared in proprietary chemically defined, serum-free media (either 230 μM or 3.1 mM Fe background) as shown in Table 2. Control condition had no retinyl acetate supplement; ethanol control added the solvent with no retinyl acetate at the level equivalent to the greatest amount for each experiment. These media aliquots were used in the daily media exchanges as described above.
Viability and viable cell density were measured by Vi-CELL Cell Counter using the Trypan blue dye exclusion method (Beckman Coulter Life Sciences, Indianapolis, IN). Titer, metabolites, and lactate dehydrogenase (LDH) levels were measured using a Cedex BioHT (Roche Diagnostics GmbH, Mannheim, Germany). These titer measurements had been previously verified to be in agreement with in house HPLC Protein A methods. Osmolality was measured with a 2020 Multi-Sample Micro Osmometer (Advanced Instruments, Inc, Norwood, MA) based on freezing point depression.
A small scale cell culture using CHO DG44 cells expressing a recombinant monoclonal IgG1 antibody was treated with ferric citrate and retinyl acetate at different concentrations to assess the effect on cell viability, essentially as described for the small scale culture in Example 1.

Data set [5] has the same test system. The data set is described as above. Format: cell-based. The source holds these as a separate data set.
The mark [6] stands for this setting: 100 μM retinyl acetate, 350 μM ferric citrate, days 25 to 29 (FIG. 7).

For `CC1=C(/C=C/C(C)=C/C=C/C(C)=C/CO)C(C)(C)CCC1` [retinol], in the data set with CHO cultures (higher retinol concentrations (above 10 to 50 μM)), the cytotoxicity entry is recorded as “cytotoxic”. In addition, the “growth and protein synthesis” value with CHO cultures (retinol 10 to 50 μM) is “inhibitory effect on growth and protein synthesis”.
As for `CC(=O)OC/C=C(C)/C=C/C=C(C)/C=C/C1=C(C)CCCC1(C)C` [retinyl acetate], the “cell percentage in G0/G1 phase” value in the data set with CHO-DG44 cells is listed as “increase in cell percentage in G0/G1 phase”. For the same molecule, the cell bleed entry in data set [1] (setting [6]) is “markedly decreased”. Further, the specific growth rate result is recorded as “markedly decreased” in data set [1] (setting [6]); “decrease in specific growth rate” in data set [5] (350 μM ferric citrate and 200 μM retinyl acetate, data not shown). The viability entry in data set [1] (100 μM retinyl acetate, 350 μM ferric citrate, versus 350 μM ferric citrate alone (FIG. 6)) is “same high viability”; in data set [2] (50 μM to 200 μM retinyl acetate, 1.6 mM ferric citrate (FIG. 4)) it was “not affected”; in data set [4] (same retinyl acetate concentrations (200 μM), 3.1 mM ferric citrate (FIG. 8)) it was “unaffected”; in data set [5] (Chinese hamster, 5 days, 200 μM) it was “negative effect on viability after 5 days”. In addition, in data set [1] (100 μM vitamin A, 350 μM ferric citrate background media, over 5 days (FIG. 7A)), the “reduction of cell bleed rate” value is given as “approximately 50%”. Moreover, in data set [2] (50 μM or 100 μM retinyl acetate, 1.6 mM ferric citrate, days 15 to 20, compared to control (FIG. 5A)), the bleed flow rate entry was “reduced in a dose-dependent manner”. In addition, the “decrease of cell bleed rate” value in data set [2] (150 μM vitamin A) is given as “approximately 45%”; in data set [2] (200 μM vitamin A), “roughly 70%”. Also, in data set [3], the “cells in the G0/G1 phase” value was 86%. Also, the viable cell density result in data set [4] (5 μM to 20 μM retinyl acetate, 3.1 mM ferric citrate (FIG. 1A)) is listed as “reduced the viable cell density in a dose-dependent manner”; in data set [4] (40 μM to 100 μM retinyl acetate, 3.1 mM ferric citrate (FIG. 2A)) it was “reduced the viable cell density in a dose-dependent manner”; in data set [4] (600 μM retinyl acetate, 3.1 mM ferric citrate (FIG. 3A)), “sharply declined from about day 2”. In addition, the cell proliferation result in data set [4] (60 μM to 400 μM retinyl acetate, 3.1 mM ferric citrate, small scale studies) is listed as “inhibit cell proliferation”. Also, in data set [4] (200 μM and 400 μM retinyl acetate, 3.1 mM ferric citrate (FIG. 3A)), the “growth / viable cell density” value is on record as “further inhibited growth resulting in a lower viable cell density”. Moreover, the “effect on viable cell density” value in data set [4] (200-400 μM retinyl acetate, 230 μM ferric citrate, data not shown) was “present, but less pronounced”. For the same molecule, the “decrease in growth rate” value in data set [4] (low ferric citrate (230 μM) versus high ferric citrate (3.1 mM), same retinyl acetate level) is given as “less pronounced in low ferric citrate”. Further, the “cell specific productivity (qp)” value in data set [4] (retinyl acetate with 3.1 mM ferric citrate, data not shown) was “unaffected”. In addition, in data set [5] (2 μM retinyl acetate, data not shown), the “SGR (specific growth rate)” value is recorded as “no effect on SGR was observed”.

Source of the values: patent US20230323420A1, “PERFUSION MEDIUM” (Boehringer Ingelheim International GmbH, priority 2017, published 2023).
